These results are taken from US4409238A, “Insecticides and insecticidal compositions” (Kuraray Co., Ltd., priority 1977, dated 1983).

Some results are limits rather than exact numbers.

In series [1] the test system is houseflies (Musca domestica). The series is described as follows: Mortality test against houseflies by topical application method (Test Example 1). The following applies: female adult houseflies, 24 hours, 25° C. Type of series: in vivo. How it is done:
Each test compound was accurately weighed and a 1% solution and a 0.1% solution of the sample in acetone were prepared. A 1 μl portion of either of the above solutions was micropipetted onto the thoracic dorsal part of each female adult housefly (Musca domestica) under ether anaesthesia and the fly was released in a high-walled dish together with feed. The dish was covered with a metal-wire net and maintained at 25° C. After 24 hours, the test flies were inspected for deaths and the mortality (%) was calculated. Thirty test flies were used per concentration group.

A short description of series [2]: Light stability test (Test Example 4). The series is classed as physicochemical. The following applies: direct sunlight between glass plates, 12° C., relative to aluminum foil-covered control; for remaining at 4 h: read-out: Residue (%) Exposure time 4 hrs.; for remaining at 8 h: read-out: Residue (%) Exposure time 8 hrs. Here is the method:
Into 2.0 ml of acetone were dissolved 80 mg of each test compound. A 5 μl portion of the solution was taken and spread on a glass plate (Micro Standard Cover Glass, 18 m/m No. 1, 200 pcs, Matsunami Glass Ind., Ltd.) and the acetone was evaporated. Then, a similar glass plate was superimposed on the above plate in such a manner that the test liquid was sandwitched. The specimen was exposed to direct sunlight at an atmospheric temperature of 12° C. for a predetermined exposure time. As an unexposed control, a similar specimen was covered with an aluminum foil. The test liquid was washed away with 1.0 ml of methanol containing 0.04% of dioctyl phthalate as an internal reference and high-speed liquid chromatography was carried out on the washings to determine the residual amount of the test compound. The residue (%) was calculated with the value for the aluminum foil-covered control specimen as the standard.

Another series has as its system green rice leafhoppers. The series is described as follows: Spray test on rice seedlings against green rice leafhoppers (Utility Example 1). Type of series: in vivo, green rice leafhoppers (Nephotettix cincticeps). The following applies: 30% emulsifiable concentrate (Formulation Example 5) diluted 300-fold, 10 ml/pot, 24 hours. How it is done:
To 30 parts of each of Compounds [1], [2], [5] to [13] and [17] to [19] was added 50 parts of xylene and 20 parts of Sorpol SM-200 (a surfactant, trademark of Toho Chemical Co., Ltd.). The mixture was stirred well and dissolved to obtain a 30% emulsifiable concentrate.
The emulsifiable concentrate prepared from Compounds [1], [2], [6], [7], [9], [10], [12] and [13] in Formulation Example 5 were each diluted 300-fold with water. Then, each of the dilutions was sprayed over rice seedlings 25 days after sowing at the rate of 10 ml/pot. The pot was covered with a wire-net and 15 green rice leafhoppers were released under the net. After 24 hours, the leafhoppers were examined for deaths. The mortality (%) was not less than 90% for each of Compounds [1], [2], [6], [7], [9], [10], [12] and [13].

Series [3] can be described thus: Hydrolysis resistance test (Test Example 5). The series is classed as physicochemical. The following applies: acetone/water, reflux for 2 days; read-out: Residue (%). Here is the method: Into about 8 ml of acetone were dissolved 100 mg of each test compound and, then, 1.0 g of water was added to this solution to prepare a mixed solution. This mixed solution was refluxed for 2 days. After concentration to about one half of the original volume and with the addition of dioctyl phthalate as an internal reference, the residual amount of the compound was determined by high-speed liquid chromatography. The residue (%) was then calculated.

The test system of series [4] is cockroaches (Blattella germanica). The series is described as follows: Mortality test against cockroaches by topical application method (Test Example 3). The series is classed as in vivo. The following applies: 1 μl of 1% solution in acetone, female cockroaches, 24 hours, 25° C. How it is done: Each test compound was accurately weighed and made in a 1% solution in acetone. Then, 1 μl of the above solution was micropipetted onto the abdominal part of each female cockroach (Blattella germanica) under ether anaesthesia. The roaches were released in a high-walled dish together with feed and, after the disk was covered with a metal wire net, same was maintained at 25° C. Fifteen roaches per group were employed. After 24 hours, the test roaches were inspected for deaths and the mortality (%) for each group was calculated.

For series [5], the system named is green rice leafhoppers (Nephotettix cincticeps). The series is described as follows: Mortality test against green rice leafhoppers by topical application method (Test Example 2). Type of series: in vivo. The following applies: 0.1% solution in acetone, female adults, 24 hours, 25° C. Here is the method: Each test compound was accurately weighed and an 0.1% solution in acetone was prepared. Female adults of green rice leafhopper (Nephotettix cincticeps) were anaesthetized with carbon dioxide gas and 0.5 µl of the above solution was micropipetted onto the thoracic abdominal part of each leafhopper. Then, the test leafhoppers were kept at 25° C. with access to rice plant seedlings. Each group comprised 15 green rice leafhoppers. After 24 hours, the leafhoppers were inspected for deaths and the mortality (%) was calculated for each compound.

A further series deals with guppies. The series is described as follows: Fish toxicity test (Test Example 6). Type of series: in vivo. The following applies: female guppies, 48 hours, 25° C.; concentration at which 90% or more were killed. How it is done:
To 5 l of water were added 250 mg of sorpol SM-200 (registered trademark, Toho Chemical Co., Ltd.) or Tween-20 (commercial product) as an emulsifier (surfactant) as well as 2.5 ml of an acetone solution containing one of the test compounds in a predetermined concentration. The mixture was stirred well to prepare a test water. Ten female guppies from 3 to 4 months of age were released into the test water and maintained at 25° C. The concentration of the test compound at which 90% or more of the guppies were killed during the ensuring 48 hours was determined. (This concentration is referred to as LC90).

Another series relates to house-flies. The series is described as follows: Settling mist mortality test against houseflies, oil preparations of Formulation Example 3 (Utility Example 4). Type of series: in vivo, houseflies (Musca domestica). The following applies: oil preparation with 0.1 part compound and 0.08 part permethrin per 100 parts, 24 hours. How it is done: To 0.1 part of each of Compounds [1] to [28] was added 0.08 part of permethrin, followed by the addition of a sufficient amount of kerosene to make 100 parts. The mixture was stirred to obtain an oil preparation of each compound.
By the settling mist method, a mortality test against house-flies was carried out using the oil preparations obtained in Formulation Example 3 from Compounds [1], [2], [5] to [11] and [17]. After 24 hours, the flies were examined for deaths. The mortality (%) was not less than 90% for each of Compounds [1], [2], [5] to [11] and [17].

Another series concerns houseflies. The series is described as follows: Settling mist mortality test against houseflies, oil preparations of Formulation Example 2 (Utility Example 3). The series is classed as in vivo, houseflies (Musca domestica). The following applies: oil preparation with 0.1 part compound and 0.1 part resmethrin per 100 parts, 24 hours. Here is the method:
To 0.1 part of each of Compounds [1] to [17] was added 0.1 part of resmethrin, followed by the addition of a sufficient amount of kerosene to make 100 parts. The mixture was stirred to obtain an oil preparation of each compound.
By the settling mist method, a mortality test against houseflies was carried out using the oil preparations made in Formulation Example 2 from Compounds [1], [2], [5] to [11] and [17]. After 24 hours, the flies were examined for deaths. The mortality (%) was not less than 90% for each of Compounds [1], [2], [5] to [11] and [17].

The term mortality denotes the share of the test organisms that died. As for `C#CC(OC(=O)C(CC=C(Cl)Cl)C(C)C)c1cccc(Oc2ccccc2)c1` (stereo not drawn) [Compound [7], α-Ethynyl-3-phenoxybenzyl α-(3,3-dichloroallyl)isovalerate], in [1], the “Mortality (%) 1 μg/fly” value worked out at 90% and the “Mortality (%) 10 μg/fly” value came out at 100%. Besides, in series [2], the remaining at 4 h was determined as 96% and the remaining at 8 h was 96%. In addition, the “Mortality (%)” value in the series on green rice leafhoppers is “not less than 90%”. Also, the remaining at 48 h in series [3] is over 90%. Moreover, the mortality at 1 %, 0.01 mg in series [4] was found to be 80%.

As for `CC(C)=CCC(C(=O)OCc1cccc(Oc2ccccc2)c1)C(C)C` (stereo not drawn) [reference compound], the “Mortality (%) 1 μg/fly” value in [1] was 0%.

`CC(C)C(C=C(Cl)Cl)C(=O)OCc1cccc(Oc2ccccc2)c1` (stereo not drawn) [reference compound] showed a mortality at 0.1 % in [5] of 40%.

As to `CC(C)(CC=C(Cl)Cl)CC(=O)OCc1cccc(Oc2ccccc2)c1` [Compound [11], 3-Phenoxybenzyl β-(3,3-dichloroallyl)isovalerate], in series [1], the “Mortality (%) 1 μg/fly” value is 100% and the “Mortality (%) 10 μg/fly” value worked out at 100%. Moreover, in series [2], the remaining at 4 h was determined as 100% and the remaining at 8 h stood at 96%. Further, the remaining at 48 h in series [3] was over 90%.

Regarding `C#CC(OC(=O)C(CC=C(Br)Br)C(C)C)c1cccc(Oc2ccccc2)c1` (stereo not drawn) [Compound [10], α-Ethynyl-3-phenoxybenzyl α-(3,3-dibromoallyl)isovalerate], in series [1], the “Mortality (%) 1 μg/fly” value was 100% and the “Mortality (%) 10 μg/fly” value is on record as 100%. In [2], the remaining at 4 h came to 97% and the remaining at 8 h is 97%. The “Mortality (%)” value in the series with green rice leafhoppers was “not less than 90%”. Also, in the series on guppies, the LC90 is at least 10 ppm.

Consider `C=CCC1=C(C)C(OC(=O)C2C(C=C(C)C)C2(C)C)CC1=O` (stereo not drawn) [Allethrin, reference compound], for which the “Mortality (%) 1 μg/fly” value in series [1] is listed as 50%. For the same molecule, in series [2], the remaining at 4 h turned out to be 35% and the remaining at 8 h came out at 17%. In addition, in the series with guppies, the LC90 entry was “Not more than 0.5 ppm”.

For `CC(C)C(CC=C(Cl)Cl)C(=O)OCc1cccc(Oc2ccccc2)c1` (stereo not drawn) [Compound [5], 3-Phenoxybenzyl α-(3,3-dichloroallyl)isovalerate], in [1], the “Mortality (%) 1 μg/fly” value is listed as 100% and the “Mortality (%) 10 μg/fly” value turned out to be 100%. In [2], the remaining at 4 h is 99% and the remaining at 8 h was found to be 98%.

Take `CC(C)(CC(=O)OC(C#N)c1cccc(Oc2ccccc2)c1)C(Cl)C=C(Cl)Cl` (stereo not drawn) [Compound [18], α-Cyano-3-phenoxybenzyl β-(1,3,3-trichloroallyl)isovalerate]: the “Mortality (%) 10 μg/fly” value in [1] is 100%. Further, in series [2], the remaining at 4 h turned out to be 98% and the remaining at 8 h was determined as 97%. In series [3], the remaining at 48 h is over 90%.

With `CC(C)C(CC=C(Br)Br)C(=O)OC(C#N)c1cccc(Oc2ccccc2)c1` (stereo not drawn) [Compound [9], α-Cyano-3-phenoxybenzyl α-(3,3-dibromoallyl)isovalerate], in [1], the “Mortality (%) 1 μg/fly” value is 100% and the “Mortality (%) 10 μg/fly” value amounted to 100%. Also, the “Mortality (%)” value with green rice leafhoppers is recorded as “not less than 90%”.

Regarding `CC(C)C(CC=C(Br)Br)C(=O)OCc1cccc(Oc2ccccc2)c1` (stereo not drawn) [Compound [8], 3-Phenoxybenzyl α-(3,3-dibromoallyl)isovalerate], in series [1], the “Mortality (%) 1 μg/fly” value stood at 100% and the “Mortality (%) 10 μg/fly” value is recorded as 100%.

As for `C#CC(OC(=O)CC(C)(C)CC=C(Cl)Cl)c1cccc(Oc2ccccc2)c1` (stereo not drawn) [Compound [13], α-Ethynyl-3-phenoxybenzyl β-(3,3-dichloroallyl)isovalerate], in series [1], the “Mortality (%) 1 μg/fly” value worked out at 90% and the “Mortality (%) 10 μg/fly” value is reported as 100%. Moreover, in series [2], the remaining at 4 h was 100% and the remaining at 8 h turned out to be 100%. For the same molecule, the “Mortality (%)” value with green rice leafhoppers is “not less than 90%”.

Regarding `CC(C)(CC=C(Cl)Cl)CC(=O)OC(C#N)c1cccc(Oc2ccccc2)c1` (stereo not drawn) [Compound [12], α-Cyano-3-phenoxybenzyl β-(3,3-dichloroallyl)isovalerate], in [1], the “Mortality (%) 1 μg/fly” value was 100% and the “Mortality (%) 10 μg/fly” value is reported as 100%. For the same molecule, in series [2], the remaining at 4 h was determined as 92% and the remaining at 8 h came to 90%. Also, the “Mortality (%)” value in the series on green rice leafhoppers is listed as “not less than 90%”. The remaining at 48 h in series [3] is over 90%.

With `CC(C)C(CC=C(Cl)Cl)C(=O)OC(C#N)c1cccc(Oc2ccccc2)c1` (stereo not drawn) [Compound [6], α-Cyano-3-phenoxybenzyl α-(3,3-dichloroallyl)isovalerate], in series [1], the “Mortality (%) 1 μg/fly” value is listed as 100% and the “Mortality (%) 10 μg/fly” value was found to be 100%. Further, in [2], the remaining at 4 h was 92% and the remaining at 8 h was 92%. In addition, in the series with green rice leafhoppers, the “Mortality (%)” value was “not less than 90%”. In series [3], the remaining at 48 h was over 90%. Moreover, in [4], the mortality at 1 %, 0.01 mg came out at 100%.

As to `C#CC(OC(=O)CC(C)(C)C(Cl)C=C(Cl)Cl)c1cccc(Oc2ccccc2)c1` (stereo not drawn) [Compound [19], α-Ethynyl-3-phenoxybenzyl β-(1,3,3-trichloroallyl)isovalerate], the “Mortality (%) 10 μg/fly” value in series [1] was found to be 100%. In series [2], the remaining at 4 h was 97% and the remaining at 8 h came out at 92%.

For the molecule `CC(C)(CC(=O)OCc1cccc(Oc2ccccc2)c1)C(Cl)C=C(Cl)Cl` (stereo not drawn) [Compound [17], 3-Phenoxybenzyl β-(1,3,3-trichloroallyl)isovalerate], in [1], the “Mortality (%) 1 μg/fly” value was determined as 100% and the “Mortality (%) 10 μg/fly” value was 100%. Further, in [2], the remaining at 4 h came to 100% and the remaining at 8 h was 100%. Also, in the series on house-flies, the “Mortality (%)” value is “not less than 90%”. For the same molecule, the “Mortality (%)” value in the series with houseflies is on record as “not less than 90%”.

For `C=CCC(C(=O)OCc1cccc(Oc2ccccc2)c1)C(C)C` (stereo not drawn) [reference compound], in series [1], the “Mortality (%) 1 μg/fly” value is listed as 0% and the “Mortality (%) 10 μg/fly” value turned out to be 0%.
